Measurements taken from patent EP0603240B1, “SAFENING HERBICIDAL PYRAZOLYLSULFONYLUREAS” (priority 1991, dated 1993).

Experiments:
Format in all cases: in vivo
[1] = system: barnyardgrass (Echinochloa crusgalli); test: Example 21, Procedure II: Herbicide No. 1 + SUTAN PLUS (butylate + antidote) with antidotes
Description: (§1) Containers were filled and compacted with a fumigated silt loam top soil to a depth of about 1.3 cm from the top of the container. A first container was designated as an untreated control, a second container was designated as a herbicide control, and a third container was designated as a herbicide + antidote test container. Each of the containers was seeded with a crop species. A measured amount of herbicide dispersed or dissolved in acetone was applied to a measured quantity of soil. To this same quantity of soil treated with herbicide, there was added a measured amount of antidote dispersed or dissolved in acetone. The quantity of soil treated with the herbicide and antidote was thoroughly mixed to incorporate the herbicide and antidote in the soil uniformly. The seed bed in the third container of soil was covered with the soil treated with the herbicide and antidote and the container was leveled. For each test series, the seed beds of the first and second containers were likewise covered by soil layers. the cover layer of the first container was not treated with herbicide or antidote.
(§2) The containers were then placed on a bench in a greenhouse and sub-irrigated as required for the duration of the test. […] Plant response is measured in terms of percent injury. Antidote efficacy is indicated as the difference in plant injury by the herbicide(s) without the antidote and with the antidote.
(§3) This procedure is the same as Procedure I, but modified in the manner that after incorporation of the chemicals (herbicide and antidote) the containers with the covered seedbed were treated with an initial overhead irrigation equivalent to 0.6 cm rainfall, then subsequently sub-irrigated as required on greenhouse benches.
(§4) In the series of greenhouse tests described below, for routine screening purposes the herbicide/antidote compositions were tested in crop/weed combinations involving corn as the crop and either or both of the weeds barnyardgrass (Echinochloa crusgalli), a monocotyledonous weed, and velvetleaf (Abutilon theophrasti), a dicotyledonous weed. In the tables below, these weeds are indicated by the symbols "BYG" and "VL", respectively.
(§5) In this example, tests were conducted as in the preceding Examples 18-20, except here the co-herbicidal component was SUTAN® PLUS, a commercial product comprising as the active herbicidal ingredient the compound butylate (Herbicide No. 10) and an antidote […] (Antidote No. 1). Again, the antidotal compounds herein were Nos. 1, 2, 7, 13 and 15. Procedure II was used.

[2] = system: velvetleaf (Abutilon theophrasti); test: as above
Description: as §1, §2, §3, §4, §5

[3] = system: barnyardgrass (Echinochloa crusgalli); test: Example 22: retest of Example 21 at reduced greenhouse temperatures; conditions: Table 22
Description: as §1, §2, §3, §4, §5
(§6) The experiments in this example were designed as a retest of those described in Example 21 in view of the uncharacteristically poor corn safety and weed control, believed to have resulted from unseasonably high temperatures in the greenhouse. Accordingly, temperatures were reduced for these tests.

[4] = system: velvetleaf (Abutilon theophrasti); test: as above; conditions: Table 22
Description: as §1, §2, §3, §4, §5, §6

[5] = system: corn; test: Example 18, Procedure II: Herbicide No. 1 + ERADICANE (EPTC + R-25788) with auxiliary antidotes
Description: as §1, §2, §3
(§7) In the test reported in this example, the herbicidal composition was similar to that used in Example 16 in that Herbicide No. 1 was combined with EPTC (Herbicide No. 4) as a co-herbicide and the antidotes included Nos. 1, 2, 7, 13 and 15. However, in this test the EPTC was introduced as a formulation of ERADICANE (EPTC + the antidote R-25788, i.e., Antidote No. 1) at an application rate of 8.96 kg/ha. Thus, in this test two antidotes were present, viz. R-25788 and one of the auxilliary antidotes, No. 2, 13 and 15.
(§8) Test procedures were those of Procedure II above.

[6] = system: barnyardgrass (Echinochloa crusgalli); test: Example 19, Procedure II: Herbicide No. 1 + ERADICANE EXTRA with added antidotes
Description: as §1, §2, §3, §4, §7
(§9) The test reported in this example was performed in the same manner and with the same antidotes used in Example 18, the only difference being the substitution of the commercial herbicidal product ERADICANE® EXTRA for ERADICANE®. ERADICANE EXTRA is a formulation containing both an antidote, i.e., R-29148 (Antidote No. 5 herein), and an extender, dietholate.

[7] = system: velvetleaf (Abutilon theophrasti); test: as above
Description: as §1, §2, §3, §4, §7, §9

[8] = system: barnyardgrass (Echinochloa crusgalli); test: Example 18, Procedure II: Herbicide No. 1 + ERADICANE (EPTC + R-25788) with auxiliary antidotes
Description: as §1, §2, §3, §4, §7, §8

[9] = system: velvetleaf (Abutilon theophrasti); test: as above
Description: as §1, §2, §3, §4, §7, §8

[10] = system: barnyardgrass (Echinochloa crusgalli); test: Example 7, Procedure II: Herbicide No. 1 + metolachlor (No. 12) with antidotes
Description: as §1, §2, §3, §4
(§10) In this example, Procedure II described above was followed. The data from the tests in this example is shown in Table 6 and represents averages of duplicate replications.
(§11) The tests in this example followed the same procedure and antidotes used in Example 6. However, Herbicide No. 12 (metolachlor) was used as the co-herbicide with Herbicide No. 1.

[11] = system: velvetleaf (Abutilon theophrasti); test: as above
Description: as §1, §2, §3, §4, §10, §11

[12] = system: corn; test: as above
How it was run: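 Herbicide plus antidote, applied in acetone, mixed into silt loam top soil used to cover corn seed beds, with untreated and herbicide-only controls. After incorporation, containers got overhead irrigation equal to 0.6 cm rainfall, then sub-irrigation in greenhouse. Percent injury scored; antidote efficacy is injury difference; duplicate averages.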

[13] = Herbicide No.1 0.56 kg/ha + SUTAN + 8.96 kg/ha, antidote 2.24 kg/ha
[14] = Herbicide No.1 0.56 kg/ha + SUTAN + 8.96 kg/ha, antidote 8.96 kg/ha
[15] = Herbicide No.1 1.12 kg/ha + SUTAN + 8.96 kg/ha, antidote 2.24 kg/ha
[16] = Herbicide No.1 1.12 kg/ha + SUTAN + 8.96 kg/ha, antidote 8.96 kg/ha
[17] = Herbicide No.1 0.56 Kg/ha + SUTAN + 8.96 Kg/ha + antidote 2.24 Kg/ha
[18] = Herbicide No.1 0.56 Kg/ha + SUTAN + 8.96 Kg/ha + antidote 8.96 Kg/ha
[19] = Herbicide No.1 1.12 Kg/ha + SUTAN + 8.96 Kg/ha + antidote 2.24 Kg/ha
[20] = Herbicide No.1 1.12 Kg/ha + SUTAN + 8.96 Kg/ha + antidote 8.96 Kg/ha
[21] = Herbicide No.1 0.56 kg/ha + ERADICANE 8.96 kg/ha, antidote 2.24 kg/ha
[22] = Herbicide No.1 0.56 kg/ha + ERADICANE 8.96 kg/ha, antidote 8.96 kg/ha
[23] = Herbicide No.1 1.12 kg/ha + ERADICANE 8.96 kg/ha, antidote 2.24 kg/ha
[24] = Herbicide No.1 1.12 kg/ha + ERADICANE 8.96 kg/ha, antidote 8.96 kg/ha
[25] = Herbicide No.1 0.56 kg/ha + ERADICANE EXTRA 8.96 kg/ha, antidote 2.24 kg/ha
[26] = Herbicide No.1 0.56 kg/ha + ERADICANE EXTRA 8.96 kg/ha, antidote 8.96 kg/ha
[27] = Herbicide No.1 1.12 kg/ha + ERADICANE EXTRA 8.96 kg/ha, antidote 2.24 kg/ha
[28] = Herbicide No.1 1.12 kg/ha + ERADICANE EXTRA 8.96 kg/ha, antidote 8.96 kg/ha
[29] = Herbicide No.1 0.14 + No.12 3.36 kg/ha + antidote 2.24 kg/ha
[30] = Herbicide No.1 0.14 + No.12 3.36 kg/ha + antidote 8.96 kg/ha
[31] = Herbicide No.1 0.56 + No.12 3.36 kg/ha + antidote 2.24 kg/ha
[32] = Herbicide No.1 0.56 + No.12 3.36 kg/ha + antidote 8.96 kg/ha

## C=CCN(CC=C)C(=O)C(Cl)Cl [compound 1]
[1]; [13]
  % Injury BYG: 0%
[1]; [14]
  % Injury BYG: 25%
[1]; [15]
  % Injury BYG: 10%
[1]; [16]
  % Injury BYG: 35%
[2]; [13]
  % Injury VL: 40%
[2]; [14]
  % Injury VL: 65%
[2]; [15]
  % Injury VL: 65%
[2]; [16]
  % Injury VL: 60%
[3]; [17]
  % Injury BYG: 93%
[3]; [18]
  % Injury BYG: 90%
[3]; [19]
  % Injury BYG: 85%
[3]; [20]
  % Injury BYG: 90%
[4]; [17]
  % Injury VL: 80%
[4]; [18]
  % Injury VL: 80%
[4]; [19]
  % Injury VL: 80%
[4]; [20]
  % Injury VL: 80%
[5]; [21]
  % Injury Corn: 30%
[5]; [22]
  % Injury Corn: 25%
[5]; [23]
  % Injury Corn: 35%
[5]; [24]
  % Injury Corn: 25%
[6]; [25]
  % Injury BYG: 90%
[6]; [26]
  % Injury BYG: 90%
[6]; [27]
  % Injury BYG: 90%
[6]; [28]
  % Injury BYG: 95%
[7]; [25]
  % Injury VL: 70%
[7]; [26]
  % Injury VL: 75%
[7]; [27]
  % Injury VL: 70%
[7]; [28]
  % Injury VL: 85%
[8]; [21]
  % Injury BYG: 90%
[8]; [22]
  % Injury BYG: 90%
[8]; [23]
  % Injury BYG: 90%
[8]; [24]
  % Injury BYG: 85%
[9]; [21]
  % Injury VL: 85%
[9]; [22]
  % Injury VL: 85%
[9]; [23]
  % Injury VL: 75%
[9]; [24]
  % Injury VL: 75%
[10]; [29]
  % Injury BYG: 100%
[10]; [30]
  % Injury BYG: 100%
[10]; [31]
  % Injury BYG: 100%
[10]; [32]
  % Injury BYG: 100%
[11]; [29]
  % Injury VL: 70%
[11]; [30]
  % Injury VL: 75%
[11]; [31]
  % Injury VL: 85%
[11]; [32]
  % Injury VL: 80%
[12]; [29]
  % Injury Corn: 0%
[12]; [30]
  % Injury Corn: 0%
[12]; [31]
  % Injury Corn: 0%
[12]; [32]
  % Injury Corn: 10%
